Experimental data: patent US20070224321A1, “Baked Goods Comprising High-Potency Sweetener” (THE COCA-COLA COMPANY, priority 2005, published 2007)

Assay type: physicochemical
Protocol: A solution of rebaudioside A (>97% pure by HPLC ) was prepared in double distilled water (12.5 gm in 50 mL, 25% concentration) by stirring the mixture at 40° C. for 5 minutes. An amorphous form of_rebaudioside A was formed by immediately using the clear solution for spray drying with the Lab-Plant spray drier SD-04 instrument (Lab-Plant Ltd., West Yorkshire, U.K.). The solution was fed through the feed pump into the nozzle atomizer which atomized it into a spray of droplets with the help of a constant flow of nitrogen/air. […] This dry powder (11-12 g, H2O 6.74%) was discharged continuously from the drying chamber and was collected in a bottle.

rebaudioside A [Form 4]
solubility in water at room temperature: > 35.0%
